Experimental data reported in US11278548B2, “Methods and compositions for reducing side effects in chemotherapeutic treatments” (Galderma Research and Development, priority 2017, dated 2022).
Entries after “also recorded” stand apart in the source; their conditions may differ.

System: acneiform rash

## Brc1c(NC2=NCCN2)ccc2nccnc12 [brimonidine, (5-bromo-quinoxalin-6-yl)-(4,5-dihydro-1H-imidazol-2-yl)-amine]
18 EGFRI-treated patients, CTCAE v4.0 grading, followed for 12 to 24 weeks, n=17, most also on antibiotics or corticosteroids
  treated patients with a decrease in rash severity: 94%
18 EGFRI-treated patients, followed for 12 to 24 weeks
  adverse events to brimonidine: not reported; also recorded: no adverse events
EGFRI-treated patients, 83% also receiving systemic antibiotics, topical antibiotics or corticosteroids
  acneiform rash outcome (in words): improvement in acneiform rash in all patients
Majority of treated patients
  dose modification of anticancer therapies: did not require dose modification
